Reference: the supplement of paper PMC10627819

Columns and labels:
Test in all cases: fitness (endpoint OD595 vs no drug) (fraction); higher = more growth
S. aureus DSM 20231 = test system: S. aureus DSM 20231
In short: (§1)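 Plates with 384 wells were inoculated at OD595 0.01 using 30 µl of TSB, LB Lennox or CY, or 55 µl for S. pneumoniae. Incubation was at 37 °C, with OD595 measured every 30 min for 14 h. Fitness is the stationary-phase transition optical density over the robust mean of no-drug control wells, after first-reading background subtraction; it is capped at 1.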

S. aureus Newman = test system: S. aureus Newman
In short: as §1

B. subtilis 168 = test system: B. subtilis 168
In short: as §1

N[C@@H]1CONC1=O [Cycloserine D] + C[C@@H]1O[C@@H]1P(=O)(O)O [Fosfomycin]
fitness
Conditions	first compound 0.125 µg/mL	first compound 0.25 µg/mL	first compound 0.375 µg/mL	first compound 0.5 µg/mL	first compound 0.75 µg/mL	first compound 1.5 µg/mL
B. subtilis 168, partner 1.562 µg/mL	0.71	0.666	–	0.679	–	–
B. subtilis 168, partner 3.124 µg/mL	0.608	0.583	–	0.592	–	–
B. subtilis 168, partner 6.248 µg/mL	0.479	0.504	–	0.453	–	–
S. aureus DSM 20231, partner 0.781 µg/mL	–	–	0.724	–	0.703	0.764
S. aureus DSM 20231, partner 1.562 µg/mL	–	–	0.586	–	0.577	0.597
S. aureus DSM 20231, partner 3.124 µg/mL	–	–	0.451	–	0.471	0.481
S. aureus Newman, partner 0.781 µg/mL	–	–	0.64	–	0.623	0.669
S. aureus Newman, partner 1.562 µg/mL	–	–	0.516	–	0.518	0.514
S. aureus Newman, partner 3.124 µg/mL	–	–	0.165	–	0.201	0.172

N[C@@H]1CONC1=O [Cycloserine D] + C[n+]1ccc(-c2cc[n+](C)cc2)cc1 [Paraquat]
fitness
Conditions	first compound 0.125 µg/mL	first compound 0.25 µg/mL	first compound 0.375 µg/mL	first compound 0.5 µg/mL	first compound 0.75 µg/mL	first compound 1.5 µg/mL
B. subtilis 168, partner 1.25 µg/mL	0.939	0.919	–	0.958	–	–
B. subtilis 168, partner 2.5 µg/mL	0.911	0.905	–	0.899	–	–
B. subtilis 168, partner 5 µg/mL	0.842	0.787	–	0.746	–	–
S. aureus DSM 20231, partner 1.25 µg/mL	–	–	0.976	–	0.978	0.964
S. aureus DSM 20231, partner 2.5 µg/mL	–	–	≥ 1	–	0.977	≥ 1
S. aureus DSM 20231, partner 5 µg/mL	–	–	0.977	–	0.983	0.965
S. aureus Newman, partner 1.25 µg/mL	–	–	0.962	–	0.871	0.899
S. aureus Newman, partner 2.5 µg/mL	–	–	0.979	–	0.966	0.984
S. aureus Newman, partner 5 µg/mL	–	–	0.938	–	0.969	0.93

N[C@@H]1CONC1=O [Cycloserine D] + Cc1cc(NS(=O)(=O)c2ccc(N)cc2)no1 [Sulfamethoxazol]
fitness
Conditions	first compound 0.125 µg/mL	first compound 0.25 µg/mL	first compound 0.375 µg/mL	first compound 0.5 µg/mL	first compound 0.75 µg/mL	first compound 1.5 µg/mL
B. subtilis 168, partner 1 µg/mL	0.941	0.933	–	0.868	–	–
B. subtilis 168, partner 2 µg/mL	0.869	0.896	–	0.929	–	–
B. subtilis 168, partner 4 µg/mL	0.951	0.931	–	≥ 1	–	–
S. aureus DSM 20231, partner 1 µg/mL	–	–	≥ 1	–	≥ 1	0.93
S. aureus DSM 20231, partner 2 µg/mL	–	–	≥ 1	–	0.913	0.982
S. aureus DSM 20231, partner 4 µg/mL	–	–	≥ 1	–	0.929	≥ 1
S. aureus Newman, partner 1 µg/mL	–	–	0.997	–	0.979	0.949
S. aureus Newman, partner 2 µg/mL	–	–	≥ 1	–	≥ 1	≥ 1
S. aureus Newman, partner 4 µg/mL	–	–	≥ 1	–	≥ 1	≥ 1

fitness, one replicate
Conditions	first compound 0.125 µg/mL	first compound 0.25 µg/mL	first compound 0.375 µg/mL	first compound 0.5 µg/mL	first compound 0.75 µg/mL	first compound 1.5 µg/mL
B. subtilis 168, partner 0.5 µg/mL	0.939	0.993	–	0.977	–	–
S. aureus Newman, partner 8 µg/mL	–	–	≥ 1	–	≥ 1	≥ 1

N[C@@H]1CONC1=O [Cycloserine D] + Cc1ncc([N+](=O)[O-])n1CCO [Metronidazole]
fitness
Conditions	partner 0.625 µg/mL	partner 0.781 µg/mL	partner 1.25 µg/mL	partner 1.562 µg/mL	partner 2.5 µg/mL	partner 3.124 µg/mL
B. subtilis 168, first compound 0.125 µg/mL	0.948	–	0.913	–	0.937	–
B. subtilis 168, first compound 0.25 µg/mL	–	–	0.841	–	0.868	–
B. subtilis 168, first compound 0.5 µg/mL	0.933	–	0.921	–	0.973	–
S. aureus DSM 20231, first compound 0.375 µg/mL	≥ 1	–	≥ 1	–	≥ 1	–
S. aureus DSM 20231, first compound 0.75 µg/mL	≥ 1	–	≥ 1	–	≥ 1	–
S. aureus DSM 20231, first compound 1.5 µg/mL	≥ 1	–	≥ 1	–	≥ 1	–
S. aureus Newman, first compound 0.375 µg/mL	0.969	0.959	≥ 1	0.976	0.97	0.985
S. aureus Newman, first compound 0.75 µg/mL	0.929	≥ 1	≥ 1	0.972	0.961	0.988
S. aureus Newman, first compound 1.5 µg/mL	0.912	≥ 1	0.964	0.974	0.972	≥ 1

N[C@@H]1CONC1=O [Cycloserine D] + Cc1onc(-c2ccccc2)c1C(=O)N[C@@H]1C(=O)N2[C@@H]1SC(C)(C)[C@@H]2C(=O)O [Oxacillin]
fitness
Conditions	first compound 0.125 µg/mL	first compound 0.25 µg/mL	first compound 0.375 µg/mL	first compound 0.5 µg/mL	first compound 0.75 µg/mL	first compound 1.5 µg/mL
B. subtilis 168, partner 0.002 µg/mL	0.973	0.926	–	0.906	–	–
B. subtilis 168, partner 0.004 µg/mL	0.966	0.887	–	0.9	–	–
B. subtilis 168, partner 0.008 µg/mL	0.936	0.892	–	0.907	–	–
S. aureus DSM 20231, partner 0.0156 µg/mL	–	–	0.878	–	0.906	0.931
S. aureus DSM 20231, partner 0.0312 µg/mL	–	–	0.67	–	0.712	0.656
S. aureus DSM 20231, partner 0.0625 µg/mL	–	–	0.506	–	0.499	0.494
S. aureus Newman, partner 0.0156 µg/mL	–	–	0.819	–	0.779	0.771
S. aureus Newman, partner 0.0312 µg/mL	–	–	0.716	–	0.663	0.642
S. aureus Newman, partner 0.0625 µg/mL	–	–	0.611	–	0.611	0.579

fitness, B. subtilis 168, one replicate
Conditions	partner 0.0078 µg/mL	partner 0.0155 µg/mL	partner 0.031 µg/mL	partner 0.075 µg/mL	partner 0.15 µg/mL	partner 0.3 µg/mL
first compound 0.125 µg/mL	0.99	0.909	0.873	0.526	0.0465	0.0536
first compound 0.25 µg/mL	0.937	0.966	0.88	0.596	0.0158	0.0367
first compound 0.5 µg/mL	0.973	≥ 1	0.973	0.459	0.0287	0.0208

N[C@@H]1CONC1=O [Cycloserine D] + O=C(O[C@@H]1Cc2c(O)cc(O)cc2O[C@@H]1c1cc(O)c(O)c(O)c1)c1cc(O)c(O)c(O)c1 [EGCG]
fitness
Conditions	partner 6.25 µg/mL	partner 12.5 µg/mL	partner 25 µg/mL	partner 50 µg/mL
B. subtilis 168, first compound 0.125 µg/mL	0.934	0.567	–	–
B. subtilis 168, first compound 0.25 µg/mL	0.898	–	0.289	–
B. subtilis 168, first compound 0.5 µg/mL	0.938	0.443	–	–
S. aureus DSM 20231, first compound 0.375 µg/mL	–	0.785	0.784	0.776
S. aureus DSM 20231, first compound 0.75 µg/mL	–	0.73	0.772	–
S. aureus DSM 20231, first compound 1.5 µg/mL	–	0.798	0.663	–
S. aureus Newman, first compound 0.375 µg/mL	–	0.77	0.765	0.691
S. aureus Newman, first compound 0.75 µg/mL	–	0.805	0.821	0.697
S. aureus Newman, first compound 1.5 µg/mL	–	0.851	0.779	0.706
